Test results: patent publication US12173349B2, “Lung protease nanosensors and uses thereof” (Massachusetts Institute of Technology, priority 2018, dated 2024)
*1 amine or outer side, *2 acyl side, *3 side chain or, on linkers, in order; H or OH if unused. Where no end group is shown, it is not given here. [ ]: non-standard residue; d: D form. ξ: configuration not given here. +10F = isotope-labelled Phe, +10, O=[13C]([13C@H]([13CH2][13c]1[13cH][13cH][13cH][13cH][13cH]1)[15NH][*:1])[*:2]; ξβ3hPhg(2-NO2) = O=C(CC(N[*:1])c1ccccc1[N+](=O)[O-])[*:2]; FAM = carboxyfluorescein fluorophore label; AF488 = Alexa Fluor 488 fluorophore label; +1A = isotope-labelled Ala, +1; +1F = isotope-labelled Phe, +1; +2G = isotope-labelled Gly, +2; +4A = isotope-labelled Ala, +4

Key:
[1] = system: P. aeruginosa strain PA01 lung infection; experiment: urinary reporter ELISA after intravenous ABNs in bacterial pneumonia model; format: in vivo, mice; details: for urine signal in ciprofloxacin-treated versus doxycycline-treated mice / urine signal relative to healthy controls: 24 hours post-infection; for urine signal after ciprofloxacin treatment above baseline: 7 days post-infection, 4 days of ciprofloxacin; for increase in urinary reporter after initiation of infection relative to pre-infection: ABNs injected intravenously 24 hours post infection, urine at 1 hour; for ROC AUC, infected from healthy mice: FIG. 11D, n=9 mice; for ROC AUC, ciprofloxacin treated from pre-treatment signal (Treatment): FIG. 12, 7 days post-infection; for ROC AUC, infected from healthy (Infection): FIG. 12, administered prior to drug treatment; for ROC AUC, effective versus ineffective treatment (doxycycline-treated vs ciprofloxacin-treated): treatment started 5 hours post-infection, ABNs 24 hours post-infection
Excerpt: Peptide substrates were coupled to 40 kDa 8-arm PEG-MAL via terminal cysteines on each peptide to generate ABNs for use in vivo (Dudani et al., Adv Funct Mater, 26, 2919, 2016; Kwong et al., Proc Natl Acad Sci, 112, 12627, 2015). Each substrate is barcoded with an independent ligand and a biotin on a stable urinary peptide reporter that can be measured by a sandwich ELISA after proteolysis of the substrate, release of the reporter, and clearance into the urine (Warren et al., Proc Natl Acad Sci USA, 111, 3671, 2014; Lin et al., ACS Nano, 0) (FIGS. 11A and 16). The selection of a pair of distinct, ligand-encoded reporters enables simultaneous, multiplexed administration of the two nanosensors. Following initiation of the infection, ABNs were injected intravenously after 24 hours and collected urine an hour after the administration of the nanosensors.
To evaluate whether the presently disclosed ABNs could be used to monitor clearance of infection, PA01 was instilled intratracheally into mice, the pair of ABNs was administered the following day to confirm and set a baseline for infection in each individual, and then antibiotic treatment was initiated with ciprofloxacin, a commonly used broad spectrum antibiotic with activity against gram-negative bacteria, including PA01 (Zeiler et al., Ciprofloxacin, 14, 1986). The diagnostic ABN injection and urine collection was repeated 7 days post-infection (with an interceding 4 days of drug treatment) to determine whether the substrates could monitor recovery from infection following effective antibiotic treatment (FIG. 12A). After ciprofloxacin treatment, LAS urine signal returned to baseline, though ELA remained elevated (1.2-fold and 2.2-fold above baseline, respectively; […]).
Individual responses to antimicrobial treatment can be highly variable, dependent upon the strain of pathogen and the presence of antibiotic resistance, and current clinical tests take 24-72 hours to identify antibiotic susceptibility (Caliendo et al., Clin Infect Dis, 57, S139, 2013). In addition, current clinical tests used to visualize lung infections (e.g., chest X-ray and computed tomography) are often unable to distinguish active infections from those that have been adequately treated until several weeks after antibiotic therapy is complete, because the airspace opacifications characteristic of pneumonia remain apparent on routine radiography screens (Bruns et al., J Gen Intern Med, 25, 203, 2010). Therefore, the ability of the infection-tracking ABNs to identify successful versus insufficient treatment on an acute time-scale shortly after therapeutic initiation was sought to be evaluated. Only 5 hours after establishing lung infections with PA01, antibiotic treatment was initiated with either ciprofloxacin (efficacious against P. aeruginosa) or doxycycline (ineffective against gram-negative bacteria including P. aeruginosa) (FIG. 13A). The following day, multiplexed LAS-E and ELA-E ABNs were administered and urine was collected. […] The persistent Pseudomonas immunostaining observed following ciprofloxacin treatment might be derived from residual Pseudomonas antigens remaining from lysed bacteria that had not yet been cleared by the immune system. Alternatively, the reduced LAS sensor reading in these treated mice could reflect a suppression of LasA secretion from bacteria as they are killed by the potent antibiotic.
All animal studies were approved by Massachusetts Institute of Technology's Committee on Animal Care. For infection studies, 5-7 week old female CD-1 mice were innoculated intratracheally with 1.25×10^6 CFU of P. aeruginosa strain PA01 in 50 μL of PBS. Bacteria were cultured overnight in LB broth, then subcultured and grown to log phase (OD600≈0.5). Bacteria were pelleted, washed with sterile PBS, and then resuspended to the requisite concentration for intratracheal administration. Mice were administered buprenorphine and meloxicam several hours after infection. […]

[2] = system: 15 proteases in the LUAD protease panel; experiment: in vitro recombinant protease screen of FRET-paired substrates; format: biochemical; details: fluorescence fold change at 45 minutes; 1 μM substrate, 12.5 nM recombinant enzyme; MP metallo-, SP serine, AP aspartic protease
Excerpt: Hundreds of peptide sequences have been previously designed and validated as protease substrates, leveraging known catalytic specificities of different protease families, published datasets and substrate sequences in databases like cutDB and MEROPS (Igarashi et al., Nucleic Acids Res 35, D546-549, 2007; Rawlings et al., Nucleic Acids Res 46, D624-D632, 2018). Fourteen of these substrates were nominated in an effort to cover the specificity profiles of metallo-, serine and aspartic endoproteases, all of which were included in the LUAD protease panel, and the catalytic activity of each protease-substrate pair was characterized. Quenched probes that incorporated the 14 peptide substrates were synthesized such that they fluoresce upon proteolytic cleavage to enable real-time monitoring of protease activity in vitro (FIG. 3A and Table 2). Each probe was incubated with each protease in the panel and fluorescence was monitored over 45 minutes. Shown are sample kinetic plots monitoring dequenching of the 14 FRET-paired probes when incubated with (above) and without (below) recombinant matrix metalloproteinase 3 (MMP3) (FIG. 3B). […] See also FIG. 19.
Fluorogenic protease substrates were synthesized by CPC Scientific. Recombinant proteases were purchased from Enzo Life Sciences, R&D Systems and Haematologic Technologies. For recombinant protease assays, fluorogenic substrates PPQ1-14 (1 μM final concentration) were incubated in 30 μL final volume in appropriate enzyme buffer, according to manufacturer specifications, with 12.5 nM recombinant enzyme at 37° C. (FIG. 3). Proteolytic cleavage of substrates was quantified by increases in fluorescence over time by fluorimeter (Tecan Infinite M200 Pro). Enzyme cleavage rates were quantified as relative fluorescence increase over time normalized to fluorescence before addition of protease. Hierarchical clustering was performed in GENE-E, using fluorescence fold changes at 45 minutes.

[3] = system: Kras and p53 mutant lung adenocarcinoma (KP mice); experiment: urinary ABN readout and random forest classification in KP lung adenocarcinoma model; format: in vivo
Procedure: To characterize ABN performance in vivo, 14 protease-sensitive ABNs were administered to KP mice and healthy, age and sex-matched controls at 5, 7.5 and 10.5 weeks after tumor initiation. Mouse bladders were voided one hour after intrapulmonary delivery and all fresh urine produced during the subsequent hour (from 60-120 minutes after administration) was pooled and collected. LC-MS/MS was performed and peak area ratios (defined as peak area of urinary reporter divided by peak area of spiked-in internal standard) of protease-sensitive reporters were mean-normalized within each sample to reduce mouse-to-mouse variation.
A random forest classifier was then sought to be built to enable prospective diagnosis of lung cancer in KP mice. Random forest is a high-performance classifier, applicable to a wide variety of classification tasks, that generates a collection of decision trees (a “forest”) that are sampled to produce classification results (Breiman, Machine Learning 45, 5-32, 2001). A random forest classifier was trained using 50% of control mice at 5 weeks, 7.5 weeks and 10.5 weeks, as well as 50% of KP mice at 7.5 weeks (FIG. 6A). The classifier assigned a probability that each mouse belonged to either the KP cohort or the healthy control cohort (FIG. 6B, “Training” panel), achieving perfect separation of control and KP mice. The classifier was then sought to be tested on an independent validation cohort consisting of classifier-naive KP mice at 5 weeks, 7.5 weeks and 10.5 weeks post-induction, as well as the remaining control mice from each time point.
Male B6/SV129 Kras^LSL-G12D/+; Trp53^fl/fl (KP) mice between 18 and 30 weeks old were used for lung adenocarcinoma experiments. Tumors were initiated, as described previously (DuPage et al., Nat Protoc 4, 1064-1072 (2009)), by the intratracheal administration of 50 μL of adenovirus-SPC-Cre (2.5×10^8 PFU in Opti-MEM with 10 mM CaCl2)) under isoflurane anesthesia. […] Tumor growth was monitored by micro computed tomography (microCT) imaging (General Electric) and was scored by a blinded radiation oncologist using MicroView (Parallax Innovations) (Table 4). Tumor volumes were calculated by using the ROI sphere/elliptical tool.
ABN constructs (GluFib-Substrate-PEG-840 kDa) for urinary experiments were synthesized by CPC Scientific (Sunnyvale, CA). ABNs were dosed (50 μL total volume, 20 μM concentration per ABN) by intratracheal intubation, as described above. Bladders were voided 60 minutes after ABN administration and all urine produced 60-120 min after ABN administration was collected using custom tubes in which the animals rest upon 96-well plates that capture urine. Urine was pooled and frozen at −80° C. until analysis by LC-MS/MS.
Liquid chromatography/tandem mass spectrometry was performed by Syneos Health (Princeton, NJ) using a Sciex 6500 triple quadrupole instrument. Briefly, urine samples were treated with UV irradiation to photocleave the ANP linker and liberate the Glu-Fib reporter from residual peptide fragments. Samples were extracted by solid-phase extraction and analyzed by multiple reaction monitoring by LC-MS/MS to quantify concentration of each Glu-Fib mass variant. Analyte quantities were normalized to a spiked-in internal standard and concentrations were calculated from a standard curve using peak area ratio (PAR) to the internal standard. Mean normalization was performed on PAR values to account for mouse-to-mouse differences in ABN inhalation efficiency and urine concentration.
Principal component analysis (PCA) was performed on mean normalized PAR values in the R statistical environment (Team, R.C. R, R Foundation for Statistical Computing, Vienna, Austria, 2017) using the prcomp function. Binary classification was performed using the Caret package (Kuhn, M. caret: Classification and Regression Training. (2017)) in the R statistical environment). […]

## ELA-E: elastase substrate with FAM ligand-encoded reporter and biotin (SEQ ID NO: 48), coupled to 40 kDa 8-arm PEG-MAL ([dE]G[dV][dN][dD][dN][dE][dE]G[dF][dF][dS][dA][dR]K(FAM)GGAAFAGC; also: biotin, site not given here, coupled to 40 kDa 8-arm PEG-MAL, site not given here)
[1]
  urine signal in ciprofloxacin-treated versus doxycycline-treated mice: not significantly different
  urine signal after ciprofloxacin treatment above baseline: 2.2 fold
  increase in urinary reporter after initiation of infection relative to pre-infection: 2.6 fold
  ROC AUC, infected from healthy mice: 1.00
  ROC AUC, ciprofloxacin treated from pre-treatment signal (Treatment): 0.72
  ROC AUC, infected from healthy (Infection): 1.00
  ROC AUC, effective versus ineffective treatment (doxycycline-treated vs ciprofloxacin-treated): 0.536
[1]; ciprofloxacin-treated mice
  urine signal relative to healthy controls: robustly elevated
[1]; doxycycline-treated mice
  urine signal relative to healthy controls: robustly elevated

## LAS-E: LasA substrate with AF488 ligand-encoded reporter and biotin (SEQ ID NO: 46), coupled to 40 kDa 8-arm PEG-MAL ([dE]G[dV][dN][dD][dN][dE][dE]G[dF][dF][dS][dA][dR]K(AF488)GGLGGGAGC; also: biotin, site not given here, coupled to 40 kDa 8-arm PEG-MAL, site not given here)
[1]
  urine signal in ciprofloxacin-treated versus doxycycline-treated mice: significantly lower
  urine signal after ciprofloxacin treatment above baseline: 1.2 fold
  increase in urinary reporter after initiation of infection relative to pre-infection: 1.8 fold
  ROC AUC, infected from healthy mice: 0.86
  ROC AUC, ciprofloxacin treated from pre-treatment signal (Treatment): 0.88
  ROC AUC, infected from healthy (Infection): 0.92
  ROC AUC, effective versus ineffective treatment (doxycycline-treated vs ciprofloxacin-treated): 0.893
[1]; doxycycline-treated mice
  urine signal relative to healthy controls: elevated

## PP02: ABN: reporter eG(+6V)ndneeGF(+1F)s(+1A)r, ANP, substrate PVGLIG, nanocarrier PEG8-40 kDa (chain 1 EGVNDNEEGFFSAR; not fully specified (some residues); printed as PP02: ABN: reporter eG(+6V)ndneeGF(+1F)s(+1A)r, ANP, substrate PVGLIG, nanocarrier PEG8-40 kDa)
[2]
  protease class(es) cleaving the substrate in vitro: metalloproteases or both metalloproteases and aspartic proteases
[3]; KP7.5 wk urine
  urinary reporter enrichment relative to healthy controls: enriched
[3]; KP10.5 wk urine
  urinary reporter enrichment relative to healthy controls: enriched

## PP04: ABN: reporter e(+2G)Vndnee(+2G)FFs(+4A)r, ANP, substrate PLGLRSW, nanocarrier PEG8-40 kDa (chain 1 [dE][+2G]V[dN][dD][dN][dE][dE][+2G]FF[dS][+4A][dR][ξβ3hPhg(2-NO2)]; also: ANP photolabile linker joins reporter and substrate, sites not given here, PEG8-40 kDa nanocarrier, site not given here)
[2]
  protease class(es) cleaving the substrate in vitro: SP/MP

## PP10: ABN: reporter e(+2G)(+6V)ndneeG(+10F)(+1F)s(+1A)r, ANP, substrate ILSRIVGGG, nanocarrier PEG8-40 kDa (chain 1 [dE][+2G][+6V][dN][dD][dN][dE][dE]G[+10F][+1F][dS][+1A][dR][ξβ3hPhg(2-NO2)]; also: ANP photolabile linker joins reporter and substrate, sites not given here, PEG8-40 kDa nanocarrier, site not given here)
[2]
  protease class(es) cleaving the substrate in vitro: MP/SP/AP
